For test [1], the target named is T1, human TGR5 (h-TGR5) (Homo sapiens, UniProt Q8TDU6).
T1 construct: expressed in transfected cells
T1 sequence (Q8TDU6 1-330): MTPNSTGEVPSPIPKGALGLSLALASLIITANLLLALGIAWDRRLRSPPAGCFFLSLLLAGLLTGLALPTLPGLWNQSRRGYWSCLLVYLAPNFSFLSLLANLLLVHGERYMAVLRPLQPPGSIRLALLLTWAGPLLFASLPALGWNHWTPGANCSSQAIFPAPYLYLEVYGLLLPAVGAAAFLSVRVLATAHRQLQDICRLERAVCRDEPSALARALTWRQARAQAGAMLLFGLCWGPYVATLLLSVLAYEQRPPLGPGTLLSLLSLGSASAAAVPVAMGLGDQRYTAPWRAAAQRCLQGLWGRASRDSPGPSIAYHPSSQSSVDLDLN
Nature of the test: TGR5/CRE-Luciferiase Assay (HEK 293 hTGR5/CRE-Luc cells). The format is cell-based. Particulars: h-TGR5 CRE-Luc EC50, Table 1; read-out: CRE-Luc (EC50). The procedure, abridged:
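HEK293 cells stably carrying hTGR5 and a CRE-luciferase reporter were exposed to serially diluted compounds (diluted in DMEM with 5% DMSO) for 6 h. Cells were then lysed in luciferase buffer, luminescence was read, and EC50 values were derived from dose-response curves.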

For test [2], the target named is T2, h-TGR5 (Homo sapiens, UniProt Q8TDU6).
T2 construct: expressed in transfected cells
T2 sequence (Q8TDU6 1-330): T1 sequence (Q8TDU6 1-330)
The experiment in a line: TGR5 cAMP Assay using Cisbio cAMP Dynamic2 htrf kit (hTGR5CRE-luc HEK 293 cells). The format is cell-based. Particulars: h-TGR5 cAMP EC50, Table 1; read-out: cAMP (EC50). The procedure, abridged:
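[…], 4000 hTGR5CRE-luc HEK 293 cells per well, with 0.5 mM IBMX and d2-cAMP, were incubated 30 min at room temperature with compounds in 8-point half-log series, in quadruplicate.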

Where only a bound is given, the exact number is not on record here.

The EC50 is the concentration that produces a half-maximal response. Take `CC(C)(c1ccc(Cl)c(Cl)c1)c1cnc(SCc2ccc(Cl)c(-c3nnn[nH]3)c2)n1-c1cccc(Cl)c1` [5-{2-chloro-5-[({1-(3-chlorophenyl)-5-[1-(3,4-dichlorophenyl)-1-methylethyl]-1H-imidazol-2-yl}thio)methyl]phenyl}-1H-tetrazole]: the EC50 in test [1] and in test [2] was 100 to 1000 nM in each case.
Take `CC(C)NC(=O)NS(=O)(=O)c1ccc(CSc2ncc(C(C)(C)c3ccc(F)c(F)c3)n2-c2ccc(F)cc2)c(Cl)c1` [3-chloro-4-[({5-[1-(3,4-difluorophenyl)-1-methylethyl]-1-(4-fluorophenyl)-1H-imidazol-2-yl}thio)methyl]-N-{[(1-methylethyl)amino]carbonyl}benzenesulfonamide]: the EC50 in test [1] and in test [2] was 100 to 1000 nM each time.
With `CC(C)(c1ccc(Cl)c(Cl)c1)c1cnc(SCc2c(F)cc(C(=O)NO)cc2F)n1-c1ccc(F)cc1` [4-[({5-[1-(3,4-dichlorophenyl)-1-methylethyl]-1-(4-fluorophenyl)-1H-imidazol-2-yl}thio)methyl]-3,5-difluoro-N-hydroxybenzamide], the EC50 in test [1] and in test [2] was < 100 nM each time.
`CCOC(=O)NS(=O)(=O)c1ccc(CSc2ncc(C(C)(C)c3ccc(Cl)c(OC)c3)n2-c2ccc(F)cc2)cc1F` [ethyl {[4-({[5-{1-[4-chloro-3-(methyloxy)phenyl]-1-methylethyl}-1-(4-fluorophenyl)-1H-imidazol-2-yl]thio}methyl)-2-fluorophenyl]sulfonyl}carbamate]: the half-maximal effective concentration (EC50) in test [1] and in test [2] was < 100 nM in each case.
As for `CC(C)(c1ccc2onc(N)c2c1)c1cnc(SCc2c(F)cc(C(=O)O)cc2F)n1-c1ccc(F)cc1` [4-[({5-[1-(3-amino-1,2-benzisoxazol-5-yl)-1-methylethyl]-1-(4-fluorophenyl)-1H-imidazol-2-yl}thio)methyl]-3,5-difluorobenzoic acid], the half-maximal effective concentration (EC50) in test [1] and in test [2] was < 100 nM throughout.
Regarding `COc1cc(C(C)(C)c2cnc(SCc3ccc(F)c(-c4nnn[nH]4)c3)n2-c2ccc(F)cc2)ccc1Cl` [5-[5-({[5-{1-[4-chloro-3-(methyloxy)phenyl]-1-methylethyl}-1-(4-fluorophenyl)-1H-imidazol-2-yl]thio}methyl)-2-fluorophenyl]-1H-tetrazole], the concentration for a half-maximal effect (EC50) in test [1] and in test [2] was < 100 nM in each case.
Take `COc1cc(C(C)(C)c2cnc(SCc3c(F)cc(C(=O)O)cc3Cl)n2-c2cccnc2)ccc1Cl` [3-chloro-4-{[(5-{1-[4-chloro-3-(methyloxy)phenyl]-1-methylethyl}-1-pyridin-3-yl-1H-imidazol-2-yl)thio]methyl}-5-fluorobenzoic acid]: the 50% effective concentration (EC50) in test [1] and in test [2] was 1000 to 10000 nM throughout.
In the case of `COc1cc(-n2c(C(C)(C)c3ccc(Cl)c(Cl)c3)cnc2SCc2ccc(C#CCNC(=N)N)c(C(=O)O)c2)ccc1F` [2-(3-{[amino(imino)methyl]amino}prop-1-yn-1-yl)-5-[({5-[1-(3,4-dichlorophenyl)-1-methylethyl]-1-[4-fluoro-3-(methyloxy)phenyl]-1H-imidazol-2-yl}thio)methyl]benzoic acid], the EC50 in test [1] and in test [2] was 100 to 1000 nM throughout.
In the case of `COc1cc(C(C)(C)c2cnc(SCc3c(F)ccc(OCCCNC(=N)N)c3Cl)n2-c2ccc(F)cc2)ccc1F` [1-(3-{[2-chloro-4-fluoro-3-({[5-{1-[4-fluoro-3-(methyloxy)phenyl]-1-methylethyl}-1-(4-fluorophenyl)-1H-imidazol-2-yl]thio}methyl)phenyl]oxy}propyl)guanidine], the EC50 in test [1] and in test [2] was < 100 nM in each case.
Consider `CC(C)(c1ccc(Cl)c(Cl)c1)c1cnc(SCc2c(F)cc(C(N)=O)cc2F)n1-c1ccc(F)cc1` [4-[({5-[1-(3,4-dichlorophenyl)-1-methylethyl]-1-(4-fluorophenyl)-1H-imidazol-2-yl}thio)methyl]-3,5-difluorobenzamide], for which the EC50 in test [1] and in test [2] was 100 to 1000 nM throughout.
Regarding `COc1ccc(C(C)(C)c2cnc(SCc3cc(F)ccc3Cl)n2-c2ccc(F)cc2)cc1OC` [5-{1-[3,4-bis(methyloxy)phenyl]-1-methylethyl}-2-{[(2-chloro-5-fluorophenyl)methyl]thio}-1-(4-fluorophenyl)-1H-imidazole], the concentration giving a half-maximal response (EC50) in test [1] and in test [2] was < 100 nM each time.
As to `COc1cc(C(C)(C)c2cnc(SCc3c(F)cc(C(=O)NCS(=O)(=O)O)cc3Cl)n2-c2ccc(F)cc2)ccc1Cl` [({[3-chloro-4-({[5-{1-[4-chloro-3-(methyloxy)phenyl]-1-methylethyl}-1-(4-fluorophenyl)-1H-imidazol-2-yl]thio}methyl)-5-fluorophenyl]carbonyl}amino) methanesulfonic acid], the concentration for a half-maximal effect (EC50) in test [1] and in test [2] was < 100 nM in each case.
In the case of `CC(C)(c1ccc(Cl)c(Cl)c1)c1cnc(SCc2ccc(F)c(S(C)(=O)=O)c2)n1-c1ccc(F)cc1` [5-[1-(3,4-dichlorophenyl)-1-methylethyl]-2-({[4-fluoro-3-(methylsulfonyl)phenyl]methyl}thio)-1-(4-fluorophenyl)-1H-imidazole], the EC50 in test [1] is < 100 nM; in test [2] it was 100 to 1000 nM.
For `COc1cc(-n2c(C(C)(C)c3ccc(F)c(F)c3)cnc2SCc2ccc(S(=O)(=O)NC(=O)NN3CCCC3)cc2Cl)ccc1F` [3-chloro-4-[({5-[1-(3,4-difluorophenyl)-1-methylethyl]-1-[4-fluoro-3-(methyloxy)phenyl]-1H-imidazol-2-yl}thio)methyl]-N-[(pyrrolidin-1-ylamino)carbonyl]benzenesulfonamide], the concentration giving a half-maximal response (EC50) in test [1] and in test [2] was 100 to 1000 nM in each case.
Turning to `COc1cc(C(C)(C)c2cnc(SCc3c(F)cc(OCc4nnn[nH]4)cc3F)n2-c2ccc(F)cc2)ccc1Cl` [5-({[4-({[5-{1-[4-chloro-3-(methyloxy)phenyl]-1-methylethyl}-1-(4-fluorophenyl)-1H-imidazol-2-yl]thio}methyl)-3,5-difluorophenyl]oxy}methyl)-1H-tetrazole], the EC50 in test [1] and in test [2] was < 100 nM in each case.
Consider `CC(C)(c1ccc(Cl)c(Cl)c1)c1cnc(CCc2ccc(S(N)(=O)=O)cc2Cl)n1-c1ccc(F)cc1` [3-chloro-4-(2-{5-[1-(3,4-dichlorophenyl)-1-methylethyl]-1-(4-fluorophenyl)-1H-imidazol-2-yl}ethyl)benzenesulfonamide], for which the concentration giving a half-maximal response (EC50) fell in the range of 100 to 1000 nM in test [1] and 1000 to 10000 nM in test [2].
The matching figures for `COc1ccc(C(C)(C)c2cnc(SCc3ccc(S(=O)(=O)NC(=O)NN4CCCC4)cc3Cl)n2-c2ccc(F)cc2)cc1Cl` [3-chloro-4-({[5-{1-[3-chloro-4-(methyloxy)phenyl]-1-methylethyl}-1-(4-fluorophenyl)-1H-imidazol-2-yl]thio}methyl)-N-[(pyrrolidin-1-ylamino)carbonyl]benzenesulfonamide]: 100 to 1000 nM and 100 to 1000 nM.
Turning to `CC(C)(c1ccc(C(N)=O)c(Cl)c1)c1cnc(SCc2ccc(F)cc2Cl)n1-c1ccc(F)cc1` [2-chloro-4-{1-[2-{[(2-chloro-4-fluorophenyl)methyl]thio}-1-(4-fluorophenyl)-1H-imidazol-5-yl]-1-methylethyl}benzamide], the EC50 in test [1] was 100 to 1000 nM; in test [2], < 100 nM.
As to `COc1cc(-n2c(C(C)(C)c3ccc(Cl)c(OC)c3)cnc2SCc2ccc(S(=O)(=O)NC(=O)NN3CCCC3)cc2Cl)ccc1F` [3-chloro-4-{[(5-{1-[4-chloro-3-(methyloxy)phenyl]-1-methylethyl}-1-[4-fluoro-3-(methyloxy)phenyl]-1H-imidazol-2-yl)thio]methyl}-N-[(pyrrolidin-1-ylamino)carbonyl]benzenesulfonamide], the EC50 in test [1] and in test [2] was < 100 nM in each case.
For `COc1ccc(C(C)(C)c2c(Cl)nc(SCc3c(F)cccc3Cl)n2-c2ccc(F)cc2)cc1OC` [5-{1-[3,4-bis(methyloxy)phenyl]-1-methylethyl}-4-chloro-2-{[(2-chloro-6-fluorophenyl)methyl]thio}-1-(4-fluorophenyl)-1H-imidazole], the 50% effective concentration (EC50) in test [1] and in test [2] was < 100 nM throughout.
Consider `COc1cc(C(C)(C)c2cnc(SCc3cc(S(N)(=O)=O)c(F)cc3Cl)n2-c2ccc(F)cc2)ccc1Cl` [4-chloro-5-({[5-{1-[4-chloro-3-(methyloxy)phenyl]-1-methylethyl}-1-(4-fluorophenyl)-1H-imidazol-2-yl]thio}methyl)-2-fluorobenzenesulfonamide], for which the EC50 in test [1] and in test [2] was < 100 nM in each case.
With `COc1ccc(C(C)(C)c2cnc(CN(C)c3c(F)cccc3Cl)n2-c2ccc(F)cc2)cc1OC` [N-{[5-{1-[3,4-bis(methyloxy)phenyl]-1-methylethyl}-1-(4-fluorophenyl)-1H-imidazol-2-yl]methyl}-2-chloro-6-fluoro-N-methylaniline], the EC50 in test [1] and in test [2] was < 100 nM each time.
Regarding `COc1cc(C(C)(C)c2cnc(SCc3ccc(S(=O)(=O)NC(=O)Nn4cccc4)cc3Cl)n2-c2ccc(F)cc2)ccc1Cl` [3-chloro-4-({[5-{1-[4-chloro-3-(methyloxy)phenyl]-1-methylethyl}-1-(4-fluorophenyl)-1H-imidazol-2-yl]thio}methyl)-N-[(1H-pyrrol-1-ylamino)carbonyl]benzenesulfonamide], the 50% effective concentration (EC50) in test [1] and in test [2] was 100 to 1000 nM each time.

(Values after patent US8785488B2 (Exelixis Patent Company LLC, priority 2009, dated 2014).)
